Legend:
Assay type in all cases: biochemical
[1] = system: active oxygen; assay: Active oxygen eliminating activity of superoxide dismutase and antioxidants in cyclotetrasaccharide solution or water before and after storage (Experiment 7); details: for Activity (unit/mg antioxidant) After one storage / Residual activity (%): dark; for Activity (unit/mg antioxidant) Before storage: superoxide dismutase 5 μg/ml, α-glucosyl hesperidin and α-glucosyl rutin 10 mg/ml, catechin 50 μg/ml
Procedure: In one milliliter of 30% (w/v) cyclotetrasaccharide solution, which is prepared by using cyclotetrasaccharide obtained in Experiment 2, was dissolved five micrograms (μ g) of superoxide dismutase from a horseradish commercialized by Sigma Chemical Co., St. Louis, USA, 10 mg of α-glucosyl hesperidin commercialized by Hayashibara Biochemical Laboratories, Inc., Okayama Japan, 10 mg of α-glucosyl rutin commercialized by Hayashibara Biochemical Laboratories, Inc., Okayama, Japan, 250 μg of gallic acid commercialized by Wako Pure Chemical Industries, Ltd., Tokyo, Japan, or 50 μg of catechin to obtain a liquid composition. Each of the compositions was placed in a glass test tube, sealed with a rubber cap, and stored under a dark condition. As a control, water was used in place of the cyclotetrasaccharide solution.

[2] = system: superoxide, formed in a xanthine-xanthine oxidase system; assay: Active oxygen eliminating activity of powdery carrot compositions with saccharides before and after storage, nitro blue tetrazolium (NBT) test (Experiment 3); details: for Activity (unit/g) After storage / Percentage of residual activity (%) / Activity (unit/g) Before storage: powdery carrot composition; for Activity (unit/g) After storage / Percentage of residual activity (%): saccharide added at 10% d.s.b., stored at 40° C. for seven days; for Activity (unit/g) Before storage: saccharide added to disrupted carrots at 10% d.s.b.; for residual percentage / reduction inhibitory activity for active oxygen eliminating activity among the saccharides tested: powdery carrot compositions, 40° C. seven days, in words
Procedure: Fresh raw carrots were disrupted by a mixer, and saccharides were respectively added to the mixture and dissolved therein to give a concentration of 10%, d.s.b. The solutions were dried under a reduced pressure at 40° C. for two days, dried in vacuo at the same temperature for 24 hours, and pulverized by a mixer into powdery carrot compositions. […] An about 100 g each of the compositions was placed and sealed in a 500-ml polystyrene container, and stored at 40° C. for seven days. The active oxygen eliminating activities of the compositions before and after storage were compared with each other. The active oxygen eliminating activity was assayed by the nitro blue tetrazolium (NBT) test by Toshio IMANARI et al. in Igakuno Ayumi, Vol. 101, pp. 496-497 (1977), and the level of superoxide, formed in a xanthine-xanthine oxidase system, was assayed by quantifying calorimetrically the content of formazan formed by reducing NBT. As a control, refined water was used as a test solution. One unit activity of active oxygen eliminating activity was defined as that inhibited 50% formazan formation as compared with the control. […] Thus cyclotetrasaccharide is preferable as an effective ingredient for a reduction inhibitory agent for active oxygen eliminating activity.

[3] = system: superoxide, formed in a hypoxanthine-xanthine oxidase system; assay: Active oxygen eliminating activity of powdery carrot compositions with saccharides before and after storage, electron spin resonance (ESR) test (Experiment 4); details: powdery carrot composition
Procedure: Fresh raw carrots were disrupted as Experiment 3, and saccharides were respectively added to the mixture and dissolved therein to give a concentration of 10%, d.s.b. The solutions were dried under a reduced pressure at 40° C. for one day, dried in vacuo at the same temperature for 17 hours, and pulverized by a mixer into powdery carrot compositions. […] About 100 g each of the compositions was placed and sealed in a 500-ml polystyrene container, and stored at 40° C. for seven or fourteen days. The active oxygen eliminating activities of the compositions before and after storage were compared with each other. The active oxygen eliminating activity was assayed by the electron spin resonance (ESR) test by Toshihiko OZAWA in BUNSEKI, Vol. 2, pp. 68-74 (2000), and the level of superoxide, formed in a hypoxanthine-xanthine oxidase system, was assayed by the spin-trapping with 5,5-dimethyl-1-pyrroline-N-oxide in ESR.

[4] = cyclotetrasaccharide 0% (water), 80° C. 5 days, α-glucosyl hesperidin, α-glucosyl rutin 10 mg/ml, gallic acid 250 μg/ml
[5] = cyclotetrasaccharide 30%, 80° C. 5 days, α-glucosyl hesperidin, α-glucosyl rutin 10 mg/ml, gallic acid 250 μg/ml
[6] = cyclotetrasaccharide concentration 0% (water), gallic acid 250 μg/ml
[7] = cyclotetrasaccharide concentration 30%, gallic acid 250 μg/ml
[8] = cyclotetrasaccharide 0% (water), 25° C. 20 hours, 50 μg/ml
[9] = cyclotetrasaccharide 30%, 25° C. 20 hours, 50 μg/ml
[10] = cyclotetrasaccharide 0% (water), 60° C. 17 hours, 5 μg/ml
[11] = cyclotetrasaccharide 30%, 60° C. 17 hours, 5 μg/ml

Row | Compound | Activity (unit/g) After storage [2] | Percentage of residual activity (%) [2] | Activity (unit/g) Before storage [2] | Activity (unit/mg antioxidant) Before storage [1, 6] | Activity (unit/mg antioxidant) Before storage [1, 7] | also measured
1 | OCC1OC2OCC3O[C@H](O[C@H]4C(O)C(CO)OC(OCC5O[C@H](O[C@@H](C1O)C2O)C(O)C(O)[C@@H]5O)C4O)C(O)C(O)[C@@H]3O (some centres unmarked) [crystalline cyclotetrasaccharide hydrate] |  |  |  |  |  | change of the active oxygen eliminating activity on storage of a powder mixture ([1]; powdery crystalline cyclotetrasaccharide hydrate mixed dry with either of the powdery antioxidants, storage test as in Table 5): almost no change of the active oxygen eliminating activity
2 | OC[C@H]1O[C@@](CO)(O[C@H]2O[C@H](CO)[C@@H](O)[C@H](O)[C@H]2O)[C@@H](O)[C@@H]1O [Sucrose, sucrose] | 180 unit/g | 27% | 660 unit/g |  |  | 
3 | pullulan | 360 unit/g | 51% | 710 unit/g |  |  | residual percentage / reduction inhibitory activity for active oxygen eliminating activity among the saccharides tested [2]: relatively-high reduction inhibitory activity
4 | α-glucosyl hesperidin |  |  |  | 3.8 unit/mg antioxidant | 4.0 unit/mg antioxidant | Activity (unit/mg antioxidant) After one storage [1, 4]: 1.0 unit/mg antioxidant; Residual activity (%) [1, 4]: 26%; Activity (unit/mg antioxidant) After one storage [1, 5]: 2.1 unit/mg antioxidant; Residual activity (%) [1, 5]: 53%
5 | α-glucosyl rutin |  |  |  | 25 unit/mg antioxidant | 26 unit/mg antioxidant | Activity (unit/mg antioxidant) After one storage [1, 4]: 18 unit/mg antioxidant; Residual activity (%) [1, 4]: 72%; Activity (unit/mg antioxidant) After one storage [1, 5]: 22 unit/mg antioxidant; Residual activity (%) [1, 5]: 85%
6 | OC[C@@H](O)[C@@H](O)[C@H](O)[C@@H](O)CO [Sorbitol, sorbitol] | 26 unit/g | 5% | 560 unit/g |  |  | 
7 | OC[C@H]1O[C@H](O[C@H]2O[C@H](CO)[C@@H](O)[C@H](O)[C@H]2O)[C@H](O)[C@@H](O)[C@@H]1O [Trehalose, trehalose] | 380 unit/g | 66% | 580 unit/g |  |  | residual percentage / reduction inhibitory activity for active oxygen eliminating activity among the saccharides tested [2]: highest residual percentage
8 | catechin |  |  |  | 470 unit/mg antioxidant | 450 unit/mg antioxidant | Activity (unit/mg antioxidant) After one storage [1, 8]: 2.2 unit/mg antioxidant; Residual activity (%) [1, 8]: 0%; Activity (unit/mg antioxidant) After one storage [1, 9]: 240 unit/mg antioxidant; Residual activity (%) [1, 9]: 53%
9 | Superoxide dismutase |  |  |  | 10,000 unit/mg antioxidant | 12,000 unit/mg antioxidant | Activity (unit/mg antioxidant) After one storage [1, 10]: 4,600 unit/mg antioxidant; Residual activity (%) [1, 10]: 46%; Activity (unit/mg antioxidant) After one storage [1, 11]: 7,300 unit/mg antioxidant; Residual activity (%) [1, 11]: 61%
10 | OC[C@@H](O)[C@@H](O)[C@H](O)[C@H](O)CO [Mannitol, mannitol] | 59 unit/g | 11% | 520 unit/g |  |  | 
11 | OC[C@H]1O[C@H](O[C@H]2[C@H](O)[C@@H](O)C(O)O[C@@H]2CO)[C@H](O)[C@@H](O)[C@@H]1O (mixture of isomers) [Maltose, maltose] | 180 unit/g | 33% | 550 unit/g |  |  | Activity (unit/g) Before storage ([3]; saccharide added at 10% d.s.b., before storage): 236 unit/g; Activity (unit/g) After two weeks storage ([3]; stored at 40° C. for fourteen days): 53 unit/g; percentage of residual activity After two weeks storage ([3]; stored at 40° C. for fourteen days, numerals in parentheses): 22%; Activity (unit/g) After one week storage ([3]; stored at 40° C. for seven days): 56 unit/g; percentage of residual activity After one week storage ([3]; stored at 40° C. for seven days, numerals in parentheses): 24%
12 | O=C(O)c1cc(O)c(O)c(O)c1 [Gallic acid, gallic acid] |  |  |  | 590 unit/mg antioxidant | 600 unit/mg antioxidant | Activity (unit/mg antioxidant) After one storage [1, 4]: 390 unit/mg antioxidant; Residual activity (%) [1, 4]: 66%; Activity (unit/mg antioxidant) After one storage [1, 5]: 450 unit/mg antioxidant; Residual activity (%) [1, 5]: 75%
